Tests used:
human PPARγ (NR1C3) = target: T1, human PPARγ (NR1C3) (Homo sapiens, UniProt P37231); assay: Cell-based human PPARγ transactivation (nuclear receptor reporter) assay; conditions: for activating PPARγ: at 1 μM
T1 sequence (P37231 1-505): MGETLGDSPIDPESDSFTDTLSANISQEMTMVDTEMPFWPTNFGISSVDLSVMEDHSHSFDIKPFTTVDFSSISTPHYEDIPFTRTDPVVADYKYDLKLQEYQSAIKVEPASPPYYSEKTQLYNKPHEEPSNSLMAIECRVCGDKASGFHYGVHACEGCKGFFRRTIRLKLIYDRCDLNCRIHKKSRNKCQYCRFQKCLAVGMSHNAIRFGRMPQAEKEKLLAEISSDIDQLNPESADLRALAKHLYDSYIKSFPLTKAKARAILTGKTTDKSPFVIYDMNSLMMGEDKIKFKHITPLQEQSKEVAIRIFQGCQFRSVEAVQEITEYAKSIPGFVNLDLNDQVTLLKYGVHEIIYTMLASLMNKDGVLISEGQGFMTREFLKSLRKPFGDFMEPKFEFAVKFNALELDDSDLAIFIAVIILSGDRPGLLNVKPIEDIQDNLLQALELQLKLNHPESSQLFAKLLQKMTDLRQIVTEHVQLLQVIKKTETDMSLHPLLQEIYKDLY
Experimental: (§1) The assay was performed using cell-based human PPAR nuclear receptor reporter assay kits (NR1C1 for PPARα; NR1C2 for PPARδ/β, and NR1C3 for PPARγ, Indigo Biosciences) by following the manufacturer's instruction. In brief, PPAR reporter cells were added to CRM medium (Indigo Biosciences), seeded into wells of a 96-well culture plate and incubated for 5 hours in a cell culture incubator at 37° C. with 5% CO2. The medium was then removed, and the cells were treated with test compounds at different concentrations in CSM medium (Indigo Biosciences) for 24 h inside the incubator. […] DMSO (Sigma) at 0.1% (v/v) was used as negative baseline control (C). Each treatment was tested in duplicate wells. At the end point of the experiments, the treatment medium was discarded and Luciferase Detection Reagent (Indigo Biosciences) was added. Following a 10-minute rest period, the intensity of light emission (in units of “Relative Light Units; RLU”) from each assay well was quantified using a plate-reading luminometer (Synergy H1 plate reader, BioTek). In addition, live cell multiplex assay (Indigo Biosciences) was combined with the activation assays to detect potential cytotoxic effect, if any, of the test chemicals to normalize the signals as per manufacturer's instruction.

human PPARα (NR1C1) = target: T2, human PPARα (NR1C1) (Homo sapiens, UniProt Q07869); assay: Cell-based human PPARα transactivation (nuclear receptor reporter) assay; conditions: for activating PPARα: at 10 μM; for PPARα transactivation: concentration at which (or starting at which) active: luciferase reporter cells, 24 h treatment, FIG. 1
T2 sequence (Q07869 1-468): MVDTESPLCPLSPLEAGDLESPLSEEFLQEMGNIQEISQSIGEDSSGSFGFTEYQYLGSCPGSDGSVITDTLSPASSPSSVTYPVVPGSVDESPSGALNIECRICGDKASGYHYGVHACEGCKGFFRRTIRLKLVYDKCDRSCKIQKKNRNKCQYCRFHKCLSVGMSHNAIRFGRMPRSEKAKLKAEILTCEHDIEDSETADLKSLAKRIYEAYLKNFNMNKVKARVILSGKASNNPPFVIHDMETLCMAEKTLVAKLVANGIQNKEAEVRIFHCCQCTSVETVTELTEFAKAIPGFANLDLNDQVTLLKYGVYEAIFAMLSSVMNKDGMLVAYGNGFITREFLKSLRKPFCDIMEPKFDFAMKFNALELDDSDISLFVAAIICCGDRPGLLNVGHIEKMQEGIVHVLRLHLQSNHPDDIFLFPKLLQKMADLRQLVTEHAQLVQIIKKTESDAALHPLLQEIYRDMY
Experimental: as §1

[1] = test system: IMQ-stimulated HaCaT cells; assay: Anti-inflammatory effect, IMQ-stimulated HaCaT cell model (IL-6, IL-8 ELISA); assay type: cell-based, human; conditions: IMQ 50 μM, 24 h, vs control
Experimental: (§2) Three in vitro models based on HaCaT cell culture were tested. HaCaT cells were maintained as described above in DMEM high glucose (4.5g/L) medium supplemented with 10% FBS and 1% (v/v) penicillin/streptomycin solution (Invitrogen, Thermo Fisher) and kept in an incubator at 37° C. with 5% CO2. For experiments, the cells were seeded at 5×10^4 cells/well in 1 mL of medium to a 24-well culture plate (Nunc, Thermo Fisher) and incubated overnight.
(§3) (1) For the imiquimod (IMQ)-stimulated HaCaT model, IMQ (Alfa Aesar) at 50 μM final concentration was used in the experiments; (2) for TNFα/IL-17A-stimulated-HaCaT model, 2 ng/mL of each cytokine (R&D Systems) was used; and (3) for the lipopolysaccharide (LPS, Sigma) simulated HaCaT cell model, 20 μg/mL LPS was used. For drug chemical treatment the old medium in the culture plates described above was discarded and the corresponding stimulant (IMQ, TNFα/IL-17A, or LPS) with or without test chemicals in 0.5 mL fresh medium was added to each cell well. There were duplicate wells for each treatment. The plate was incubated for another 24 h and the supernatant was collected for cytokine analysis, namely IL-6 and IL-8, using the corresponding ELISA kits (Thermo Fisher).

[2] = test system: IMQ-induced psoriasis in BALB/c mice; assay: IMQ-induced psoriasis model in BALB/c mice, topical creams, PASI score; assay type: in vivo
Experimental: The animal experiment is conducted in accordance with the Guidelines for the Institutional Animal Care and Use Committee. Both male and female BALB/c mice from Rodenta Bioserve, India, at 7-8 weeks of age and 20-25 gram of body weight are housed in a laboratory environment with constant temperature (24.0±1.0° C.) and relative humidity (45.0-55.0%) on a 12 h light/dark cycles. These animals are provided free access to unlimited amounts of food and water during the entire experiment. The animals are divided into 12 groups of 8 mice each and shaved on the back on day 0 for an area of 2×2 cm . Human-like psoriasis in mice is induced by topical application of 5% Imiquimod (IMQ) procured from AK Scientific, USA, and formulated in the base cream at desired percentages in-house, in shaved area and right ear (0.5×0.5 cm). […] Vehicle, clobetasol propionate (CP, Sigma. 0.05% w/w; positive control), test creams, and CBD (Ilesol Pharmaceuticals), respectively, is applied topically on both the shaved back (80 mg cream) and the right ear (20 mg cream) of mice, once daily from day 10 to day 16. The study ends at day 17. At stated time points the severity of psoriasis is evaluated using the PASI score (Psoriasis Area Severity Index: sum of erythema, scaling and thickening, scored independently from 0 to 4 for each mouse; max PASI score=12). Tissue and blood samples are collected for histopathology, biochemistry and immunoassay from each animal at various points.

[3] = test system: LPS-stimulated HaCaT cells; assay: Anti-inflammatory effect, LPS-stimulated HaCaT cell model (IL-6, IL-8 ELISA); assay type: cell-based, human; conditions: LPS 20 μg/mL, 24 h
Experimental: as §2
as §3, with “Fisher). The experiments were repeated independently to confirm the observation.” for “Fisher).”

| Structure (SMILES) | activating PPARγ (human PPARγ (NR1C3)) | activating PPARα (human PPARα (NR1C1)) | PPARα transactivation: concentration at which (or starting at which) active (human PPARα (NR1C1)) | also measured |
| --- | --- | --- | --- | --- |
| CCCc1cc(C(=O)c2ccc(F)cc2)ccc1OCCCOc1ccc2c(cnn2C(OCC)C(=O)OC)c1 (stereo not drawn) [KV-157, methyl 2-ethoxy-2-(5-(3-(4-(4-fluorobenzoyl)-2 propylphenoxy)propoxy)-1H-indazol-1-yl)acetate] | highly effective | not effective |  |  |
| CCCc1cc(C(=O)c2ccc(-c3ccccc3)cc2)ccc1OCCOc1ccc2c(cnn2C(OCC)C(=O)O)c1 (stereo not drawn) [KV 196, 2-(5-(2-(4-([1,1′-biphenyl]-4-carbonyl)-2-propylphenoxy)ethoxy)-1H-indazol-1-yl)-2-ethoxyacetic acid] | highly effective | not effective |  |  |
| CCCc1cc(C(=O)c2ccc(F)cc2)ccc1OCCCOc1ccc2c(cnn2CC(=O)O)c1 [MP-154, 2-(5-(3-(4-(4-fluorobenzoyl)-2-propylphenoxy)propoxy)-1H-indazol-1-yl)acetic acid] |  |  | 1 µM | PPARγ transactivation: concentration at which (or starting at which) active (human PPARγ (NR1C3); FIG. 3): 1,000 nM; production of IL-6 ([1]; compound at 2.5 μM): no anti-inflammatory effect; production of IL-6 ([1]; compound at 25 μM): significantly inhibited |
| CCCc1cc(C(=O)c2ccc(-c3ccccc3)cc2)ccc1OCCCOc1ccc2c(cnn2C(OCC)C(=O)OCC)c1 (stereo not drawn) [KV-165, ethyl 2-(5-(3-(4-([1,1′-biphenyl]-4-carbonyl)-2-propylphenoxy)propoxy)-1H-indazol-1-yl)-2-ethoxyacetate] | highly effective | not effective |  |  |
| CCC(=O)O[C@]1(C(=O)CCl)[C@@H](C)C[C@H]2[C@@H]3CCC4=CC(=O)C=C[C@]4(C)[C@@]3(F)[C@@H](O)C[C@@]21C [CP, clobetasol propionate, reference compound] |  |  |  | reducing the PASI score ([2]; 0.05% w/w cream, once daily day 10 to day 16, FIG. 11): effective |
| CCCc1cc(C(=O)c2ccc(-c3ccccc3)cc2)ccc1OCCCOc1ccc2c(cnn2C(OCC)C(=O)O)c1 (stereo not drawn) [KV-180, 2-(5-(3-(4-([1.1′-biphenyl]-4-carbonyl)-2-propylphenoxy)propoxy)-1H-indazol-1-yl)-2-ethoxyacetic acid] | highly effective | not effective |  |  |
| CCCc1cc(C(=O)c2ccc(-c3ccccc3)cc2)ccc1OCCOc1ccc2c(cnn2C(OCC)C(=O)OCC)c1 (stereo not drawn) [KV-194A, Ethyl 2-(5-(2-(4-([1,1,′-biphenyl]-4-carbonyl)-2-propylphenoxy)ethoxy)-1H-indazol-1-yl)-2-ethoxyacetate] | highly effective | not effective |  |  |
| Cc1nc(-c2ccc(C(F)(F)F)cc2)sc1C(=O)NCc1ccc(OC(C)(C)C(=O)O)cc1 [GW590375, reference compound] |  |  | 0.001 µM |  |
| CCCc1cc(C(=O)c2ccc(F)cc2)ccc1OCCOc1ccc2c(cnn2C(OCC)C(=O)OCC)c1 (stereo not drawn) [KV-163A, ethyl 2-ethoxy-2-(5-(2-(4-(4-fluorobenzoyl)-2-propylphenoxy)ethoxy)-1H-indazol-1-yl)acetate] | highly effective | not effective |  |  |
| CCCc1cc(C(=O)c2ccc(-c3ccccc3)cc2)ccc1OCCCOc1ccc2c(cnn2CC(=O)OC)c1 [MP-153, methyl 2-(5-(3-(4-([1,1′-biphenyl]-4-carbonyl)-2-propylphenoxy)propoxy)-1H-indazol-1-yl)acetate] |  |  | 5 µM | production of IL-6 ([1]; compound at 2.5 μM): significantly inhibited; production of IL-6 ([1]; compound at 25 μM): significantly inhibited |
| CCCc1cc(C(=O)c2ccc(-c3ccccc3)cc2)ccc1OCCCOc1ccc2c(cnn2CC(=O)O)c1 [MP-151, 2-(5-(3-(4-([1,1′-biphenyl]-4-carbonyl)-2-propylphenoxy)propoxy)-1H-indazol-1-yl)acetic acid] |  |  | 5 µM | tolerability in mice ([2]; topical, seven-day consecutive treatment, even at 10% creams): well tolerated; visual damage on the skin ([2]; topical, seven-day consecutive treatment, up to 10% creams): No visual damage; production of IL-6 ([1]; compound at 2.5 μM): significantly inhibited; production of IL-6 ([1]; compound at 25 μM): significantly inhibited; reduction of IL-8 production compared with rosiglitazone and fenofibrate ([3]; 25 μM): more active; production of IL-6 ([3]; compound at 25 uM): reduced |
| CCCc1cc(C(=O)c2ccc(F)cc2)ccc1OCCOc1ccc2c(cnn2C(OCC)C(=O)O)c1 (stereo not drawn) [KV-192, 2-ethoxy-2-(5-(2-(4-(4-fluorobenzoyl)-2-propylphenoxy)ethoxy)-1H-indazol-1-yl)acetic acid] |  | not effective |  | concentration at which PPARγ was activated (human PPARγ (NR1C3)): 10 µM |
